Laboratory results published in PMC12209991 (Clinical Pharmacology in Drug Development, 2025).
Where two headings read alike, the source gives them in different places.

Experiments:
[1] = Food effect (high-fat breakfast) on RBN-3143 pharmacokinetics, cross-over; format: in vivo, human; conditions: single 500 mg oral dose; for Tmax / AUC(0-inf) / AUC(0-t) / Cmax: human, plasma, po, 500 mg; for Tmax: read-out: Median Tmax
Experimental: (§1) Analytes were separated by HPLC on a Waters Atlantis T3 analytical column using a gradient mobile phase (mobile phase A: 10% acetonitrile, 90% water, 10 mM ammonium acetate, 0.3% formic acid; mobile phase B: 90% acetonitrile, 10% water, 10 mM ammonium acetate, 0.3% formic acid) run at 0.4 mL/min with initial mobile phase B concentration of 30%.

[2] = Single ascending dose (SAD) pharmacokinetics in healthy volunteers; format: in vivo, human; conditions: for AUC(0-inf) / Cmax / Tmax: human, plasma, po
Experimental: as §1

Q: Which results are given for `CC(=O)N1CCC(COc2cc(F)c3c(=O)[nH]c(CSC4CCOCC4)nc3c2)CC1` [RBN‐3143]?
A: Tmax ([1]; after a high-fat meal): 4 h; Tmax ([1]; fasted state): 2 h; AUC(0-inf) ([1]; fasted, N=13, linear mixed-effects model, read-out: AUCinf, GLSM): 13300 ng·h/mL; AUC(0-t) ([1]; fasted, N=13, linear mixed-effects model, read-out: AUClast, GLSM): 12900 ng·h/mL; Cmax ([1]; fasted, N=13, linear mixed-effects model, read-out: Cmax, GLSM): 1550 ng/mL; AUC(0-inf) ([1]; fasted, N=13, read-out: AUCinf, geometric mean (Geo CV%)): 13300 ng·h/mL; AUC(0-inf) ([1]; fasted, N=13, read-out: AUCinf, mean (SD)): 13800 ng·h/mL; AUC(0-t) ([1]; fasted, N=13, read-out: AUClast, geometric mean (Geo CV%)): 12800 ng·h/mL; AUC(0-t) ([1]; fasted, N=13, read-out: AUClast, mean (SD)): 13300 ng·h/mL; Cmax ([1]; fasted, N=13, read-out: Cmax, geometric mean (Geo CV%)): 1530 ng/mL; Cmax ([1]; fasted, N=13, read-out: Cmax, mean (SD)): 1600 ng/mL; AUC(0-inf) ([1]; fed (high-fat breakfast), N=13, linear mixed-effects model, read-out: AUCinf, GLSM): 18900 ng·h/mL; AUC(0-t) ([1]; fed (high-fat breakfast), N=13, linear mixed-effects model, read-out: AUClast, GLSM): 18700 ng·h/mL; Cmax ([1]; fed (high-fat breakfast), N=13, linear mixed-effects model, read-out: Cmax, GLSM): 2690 ng/mL; AUC(0-inf) ([1]; fed (high-fat breakfast), N=13, read-out: AUCinf, geometric mean (Geo CV%)): 18800 ng·h/mL; AUC(0-inf) ([1]; fed (high-fat breakfast), N=13, read-out: AUCinf, mean (SD)): 19600 ng·h/mL; AUC(0-t) ([1]; fed (high-fat breakfast), N=13, read-out: AUClast, geometric mean (Geo CV%)): 18600 ng·h/mL; AUC(0-t) ([1]; fed (high-fat breakfast), N=13, read-out: AUClast, mean (SD)): 19400 ng·h/mL; Cmax ([1]; fed (high-fat breakfast), N=13, read-out: Cmax, geometric mean (Geo CV%)): 2660 ng/mL; Cmax ([1]; fed (high-fat breakfast), N=13, read-out: Cmax, mean (SD)): 2780 ng/mL; delay of oral absorption with food [1]: about 2 hours; RBN-3143 dose excreted in urine unchanged ([2]; SAD and MAD cohorts, pooled urine): Approximately 16%; AUC(0-inf) ([2]; 25 mg, single oral dose 25 mg, read-out: AUCinf, geometric mean (Geo CV%)): 734 ng·h/mL; AUC(0-inf) ([2]; 25 mg, single oral dose 25 mg, read-out: AUCinf, mean (SD)): 752 ng·h/mL; Cmax ([2]; 25 mg, single oral dose 25 mg, read-out: Cmax, geometric mean (Geo CV%)): 134 ng/mL; Cmax ([2]; 25 mg, single oral dose 25 mg, read-out: Cmax, mean (SD)): 138 ng/mL; Tmax ([2]; 25 mg, single oral dose 25 mg, read-out: Tmax, median [min-max]): 2 h; AUC(0-inf) ([2]; 50 mg, single oral dose 50 mg, read-out: AUCinf, geometric mean (Geo CV%)): 1540 ng·h/mL; AUC(0-inf) ([2]; 50 mg, single oral dose 50 mg, read-out: AUCinf, mean (SD)): 1560 ng·h/mL; Cmax ([2]; 50 mg, single oral dose 50 mg, read-out: Cmax, geometric mean (Geo CV%)): 259 ng/mL; Cmax ([2]; 50 mg, single oral dose 50 mg, read-out: Cmax, mean (SD)): 269 ng/mL; Tmax ([2]; 50 mg, single oral dose 50 mg, read-out: Tmax, median [min-max]): 2 h; AUC(0-inf) ([2]; 100 mg, single oral dose 100 mg, read-out: AUCinf, geometric mean (Geo CV%)): 3540 ng·h/mL; AUC(0-inf) ([2]; 100 mg, single oral dose 100 mg, read-out: AUCinf, mean (SD)): 3610 ng·h/mL; Cmax ([2]; 100 mg, single oral dose 100 mg, read-out: Cmax, geometric mean (Geo CV%)): 544 ng/mL; Cmax ([2]; 100 mg, single oral dose 100 mg, read-out: Cmax, mean (SD)): 556 ng/mL; Tmax ([2]; 100 mg, single oral dose 100 mg, read-out: Tmax, median [min-max]): 1.75 h; AUC(0-inf) ([2]; 150 mg, single oral dose 150 mg, read-out: AUCinf, geometric mean (Geo CV%)): 5000 ng·h/mL; AUC(0-inf) ([2]; 150 mg, single oral dose 150 mg, read-out: AUCinf, mean (SD)): 5050 ng·h/mL; Cmax ([2]; 150 mg, single oral dose 150 mg, read-out: Cmax, geometric mean (Geo CV%)): 653 ng/mL; Cmax ([2]; 150 mg, single oral dose 150 mg, read-out: Cmax, mean (SD)): 668 ng/mL; Tmax ([2]; 150 mg, single oral dose 150 mg, read-out: Tmax, median [min-max]): 2 h; AUC(0-inf) ([2]; 300 mg, single oral dose 300 mg, read-out: AUCinf, geometric mean (Geo CV%)): 6230 ng·h/mL; AUC(0-inf) ([2]; 300 mg, single oral dose 300 mg, read-out: AUCinf, mean (SD)): 6440 ng·h/mL; Cmax ([2]; 300 mg, single oral dose 300 mg, read-out: Cmax, geometric mean (Geo CV%)): 747 ng/mL; Cmax ([2]; 300 mg, single oral dose 300 mg, read-out: Cmax, mean (SD)): 771 ng/mL; Tmax ([2]; 300 mg, single oral dose 300 mg, read-out: Tmax, median [min-max]): 2 h; AUC(0-inf) ([2]; 600 mg, single oral dose 600 mg, read-out: AUCinf, geometric mean (Geo CV%)): 11700 ng·h/mL; AUC(0-inf) ([2]; 600 mg, single oral dose 600 mg, read-out: AUCinf, mean (SD)): 11900 ng·h/mL; Cmax ([2]; 600 mg, single oral dose 600 mg, read-out: Cmax, geometric mean (Geo CV%)): 1200 ng/mL; Cmax ([2]; 600 mg, single oral dose 600 mg, read-out: Cmax, mean (SD)): 1240 ng/mL; Tmax ([2]; 600 mg, single oral dose 600 mg, read-out: Tmax, median [min-max]): 1.75 h; AUC(0-inf) ([2]; 1000 mg, single oral dose 1000 mg, read-out: AUCinf, geometric mean (Geo CV%)): 16500 ng·h/mL; AUC(0-inf) ([2]; 1000 mg, single oral dose 1000 mg, read-out: AUCinf, mean (SD)): 17700 ng·h/mL; Cmax ([2]; 1000 mg, single oral dose 1000 mg, read-out: Cmax, geometric mean (Geo CV%)): 1460 ng/mL; Cmax ([2]; 1000 mg, single oral dose 1000 mg, read-out: Cmax, mean (SD)): 1500 ng/mL; Tmax ([2]; 1000 mg, single oral dose 1000 mg, read-out: Tmax, median [min-max]): 2.02 h; Tmax ([2]; SAD, oral, across doses 25-1000 mg, read-out: Tmax (time of peak concentrations)): 2 h
